Measurements from paper PMC13242511, “Disrupting Notch signalling by a small molecule inhibiting dihydroorotate dehydrogenase activity” (Scientific Reports, 2026).
“And” between values parts separate entries of the source, which are not always exact repeats. Equal values may be shown once. Read-outs that look alike come from different tables or passages of the source.

What was measured:
Notch signalling = assay: Notch reporter assay (12xCSL firefly luciferase / renilla luciferase, HEK293T Notch1ΔE reporter cell line clone #A1-11); format: cell-based; parameters: AUC Notch: scale not given here; conditions: for Bottom (Emax): Emax indicated independent from assay constraints, in % (unit assumed); for AUC Notch: area under the 14-point dose-response curve
Source text: To identify novel Notch inhibitors in an unbiased manner, we generated a novel Notch reporter construct, which records the level of Notch signalling immediately downstream of receptor activation rather than further downstream in the signalling cascade, for example at the level of Hes and Hey proteins (Fig. 1B). […] The reporter construct carries piggy-bac sequences at both ends of the promoter-reporter cassette as well as cSH4 insulator elements to reduce transcriptional noise[21] and was transfected into HEK293T cells. To achieve a robust level of Notch receptor activity in the HEK293T reporter cell line and to confine the search for inhibitors to compounds affecting the receptor function and eliminating the need for ligand activation, a truncated ligand-independent version of the Notch1 receptor, mimicking an S2-cleaved Notch1 receptor (Notch1ΔE) and spontaneously activated by S3-cleavage[22] (Fig. 1C) was introduced into the cell line carrying the reporter construct (Fig. 1D). In addition, an HSV-TK-renilla luciferase plasmid was introduced into the cell line as an internal control for normalisation of the reporter expression (Fig. 1D).
A de novo Notch reporter construct, composed of six dimeric CSL binding sites linked to a basic b-globin promoter and followed by a firefly luciferase gene and a PEST degradation domain was synthesised (GeneArt). The construct was stably introduced into HEK293T cells, and zeocin (0.1 mg/ml) or Puromycin (0.05 mg/ml (ThermoFisher, cat #R25001, #A1113803) were used as selection markers. A clonal cell line (clone #A1) with robust renilla expression and enhanced firefly luciferase expression upon transient transfection of Notch1 ICD or Notch1ΔE constructs was selected, and a UB6 promoter-Notch1DE construct was stably introduced into this cell line using Blasticidin (0.1 mg/ml; ThermoFisher, cat #A1113903) as a selection marker. Stable cell lines were generated by serial dilution and only clonal colonies were selected for further evaluation. To measure luciferase reporter activity, cells were washed in cold PBS, detached, and collected in pre-warmed cell culture medium and centrifugated for five min at 200xg. The cell pellet was resuspended in medium, cells were counted, and 4,000 cells were seeded in each well of a white 384 well plate (Corning #3670) in 20 µl medium containing either DMSO or the GSI DAPT (N-[N-(3,5-Difluorophenacetyl)-L-alanyl]-S-phenylglycine t-butyl ester, Sigma-Aldrich, cat #565784-M) and incubated for 24 h. The efficacy of the reporter gene system was determined by monitoring the level of luciferase activation in the absence or presence of different amounts of DAPT in several cell clones. Luciferase activity was assessed using the dual-GLO luciferase detection kit from Promega (cat # E2920), following the manufacturer’s instructions. A minimum of two technical replicates were measured per clone using a SpectraMaxi3 plate reader (Molecular Devices). Reporter activity of different clones and in response to DAPT was assessed by normalising firefly (Notch activity) to renilla luciferase signals. Normalised signals of individual clones cultivated in DMSO were then compared to corresponding signals generated with DAPT-treated cells. The cell clone with the strongest signal to control ratio (DMSO to DAPT) was then selected for further exploration (clone #A1-11).
37,966 compounds were spotted by the compound center at SciLifeLab (https://www.scilifelab.se/) on a total of 120 plates (Greiner #781080) at a fixed concentration of 10 µM and the screening process spanned five consecutive sessions. The layout of each plate contained one column for DMSO and one for DAPT controls to determine the quality and reliability of the data. DAPT controls were spotted at 10 µM and DMSO was spotted in an equimolar volume. In addition, plates spotted with only DMSO were utilized to investigate the impact of plate effects before and after each session. […]

γ-secretase complex = γ-secretase complex (Homo sapiens, UniProt P49768); assay: APP-C99 counter assay (GSI reporter assay); format: cell-based; parameters: AUC APP: scale not given here; conditions: for Hill-slope / curve fit information: bottom constrained to Emax of positive control LY-411575; for AUC APP: area under the 14-point dose-response curve, replicates averaged
Experimental: To this end, we used a previously established reporter gene-based GSI assay (APP-C99) (Fig. 3A), which measures γ-secretase activity through cleavage of amyloid precursor protein (APP), another protein processed by the γ-secretase complex[24]
Plasmids for APP and luciferase are described in[24] and the renilla plasmid described above generated for this project was used to normalize firefly values. 24 h post transfection cells were seeded on compound plates and cells were cultivated for 24 h before luciferase signals were read, as described.
Two-fold concentrations of compounds were diluted in 10 µl cell culture medium and brought to one-fold by seeding 10 µl containing 4000 cells of the respective cell type on each well of a 384-well plate, as described above. Analogous to the previous assays, all plates contained one DMSO and DAPT control column with the Notch reporter cell line (#A1-11) and a DMSO only and Notch inhibitor control plate was read before the measuring the screening plates. In addition, DAPT and DMSO were spotted in a dose response fashion, and a minimum of four replicates were read. Dose-responses of compounds were recorded in triplicates for each concentration reading out the dual luciferase reporters, as described above. Dose response assays were read together in one session. To measure compound effects, the different assays dose–response curves were fitted using the log(inhibitor) vs. response – Variable slope (model: Y = Bottom + (Top–Bottom)/(1 + 10^((LogIC50-X)*HillSlope)) equation.
A DMSO plate was read before measuring luciferase activity of compound spotted plates. APP firefly luciferase reporter assays were read with a signal integration time of 0.1 s, instead of 0.5 s used for the Notch reporter to reduce signal overlap between wells. […] The area-under-the-curve (AUC) was calculated on dose–response curves using Graphpad Prism.

[1] = Homo sapiens, HEK-293T, 14p Notch assay DR, bottom constrained to Emax of positive control DAPT, read-out: approximated IC50
[2] = Homo sapiens, HEK-293T, 14p Notch assay DR, log10 value, bottom constrained to Emax of positive control DAPT, read-out: approximated LogIC50 (converted)
[3] = 9p dose response, AUCs averaged when replicates available
[4] = 9p dose response, log10 of averaged IC50
[5] = 14p dose response, AUCs averaged when replicates available
[6] = overview in comparison to compound C, Supplemental Fig. 9

In the case of `COc1cc(Nc2cncc(-c3cccc(NC(C)=O)c3)n2)cc(OC)c1OC` [CBK065162], the “Bottom (Emax)” value (Notch signalling; 14p Notch assay DR) is reported as 40.8, the IC50 (Notch signalling; [1]) is reported as 27000 nM and the IC50 (Notch signalling; [2]) is reported as 25100 nM. For the same molecule, the “AUC Notch” value (Notch signalling; replicates averaged) was 335.0, the Hill-slope (γ-secretase complex; 14p APP assay DR) was 0.0468 and the “AUC APP” value (γ-secretase complex) was 573.8.
In the case of `COc1cc(Nc2cncc(-c3cccc(N(C)C)c3)n2)cc(OC)c1OC` [CBK065722], the “Bottom (Emax)” value (Notch signalling; 14p Notch assay DR) is reported as 82.6, the IC50 (Notch signalling; [1]) is reported as > 40000 nM and the IC50 (Notch signalling; [2]) is reported as > 40000 nM. For the same molecule, the “AUC Notch” value (Notch signalling; replicates averaged) was 354.0, the Hill-slope (γ-secretase complex; 14p APP assay DR) was -0.00462 and the “AUC APP” value (γ-secretase complex) was 501.6.
With `NC(=O)[C@@H](CC1CC1)[C@@H](CCC(F)(F)F)C(=O)N[C@H]1N=C(c2ccccc2)c2cccc(F)c2NC1=O` [BMS-983970, reference compound] the IC50 (Notch signalling; 9p dose response, single replicates, read-out: approximated IC50s 9p Notch reporter assay) was 1.2 nM, the “AUC 9p Notch reporter assay” value (Notch signalling; [3]) was 2.16E+02 and the IC50 (Notch signalling; 9p dose response, averaged over replicates, read-out: 9p Notch reporter assay averaged IC50s) was 1.2 nM. For the same molecule, the “9p Notch reporter assay averaged IC50s (log)” value (Notch signalling; [4]) was -8.9, the IC50 (Notch signalling; 14-point, unit inferred, replicates averaged, read-out: approxiated IC50s 14p Notch reporter assay) was 3.6 nM and the “Bottom (Emax)” value (Notch signalling; 14p Notch assay DR) was 49.6 and 50.5 and 62.5. For the same molecule, the IC50 (Notch signalling; 14p Notch assay DR, Notch inhibitor controls, no bottom constraint named, read-out: approximated IC50) was 3.6 nM and ~2.3 nM, the IC50 (Notch signalling; 14p Notch assay DR, averaged when replicate measurements were available, read-out: averaged IC50s) was 3.6 nM and the “approximated LogIC50 [M]” value (Notch signalling; 14p Notch assay DR, log10 value, Notch inhibitor controls, no bottom constraint named) was -8.5 M. The IC50 (Notch signalling; 14p dose response, single replicates, read-out: approximated IC50s 14p Notch reporter assay) was 3.6 nM and 3.5 nM, the “AUC 14p Notch reporter assay” value (Notch signalling; [5]) was 4.10E+02 and the IC50 (Notch signalling; 14p dose response, averaged over replicates, read-out: 14p Notch reporter assay averaged IC50s) was 3.6 nM. For the same molecule, the “14p Notch reporter assay averaged IC50s (log)” value (Notch signalling; 14p dose response, log10 of averaged IC50) was -8.4, the “AUC Notch” value (Notch signalling; replicates averaged) was 410.0 and the Notch assay (Notch signalling; [6]) was “higher potency”. For the same molecule, the “Hill-Slope 9p APP counter assay averaged” value (γ-secretase complex; 9p dose response) was -1.6, the “AUC 9p APP-counter assay” value (γ-secretase complex; [3]) was 2.41E+02 and the IC50 (γ-secretase complex; 9p dose response, averaged, read-out: 9p APP counter assay averaged IC50s) was 22 nM. For the same molecule, the “9p APP counter assay averaged IC50s (log)” value (γ-secretase complex; [4]) was -7.7, the IC50 (γ-secretase complex; 9p dose response, read-out: approximated IC50s 9p APP counter assay) was 22 nM and the IC50 (γ-secretase complex; 14-point, unit inferred, some fits outside of tested concentration range, read-out: approximated IC50s 14p APP-counter assay) was 400 nM. The “Bottom (Emax)” value (γ-secretase complex; 14p APP assay DR, Emax indicated independent from assay constraints) was 45.9 and 48.3, the IC50 (γ-secretase complex; 14p APP assay DR, Notch inhibitor controls, no bottom constraint named, read-out: approximated IC50) was 44 nM and 70 nM and the “AUC. 14p APP-counter assay” value (γ-secretase complex; [5]) was 4.87E+02. For the same molecule, the IC50 (γ-secretase complex; 14p dose response, averaged over replicates, read-out: 14p APP counter assay averaged IC50s) was 57 nM, the “AUC APP” value (γ-secretase complex) was 486.6 and the APP assay (γ-secretase complex; [6]) was “higher potency”.
With `COc1cc(Nc2nc(-c3cccc(O)c3)cn3ccnc23)cc(OC)c1OC` [CBK066361] the “Bottom (Emax)” value (Notch signalling; 14p Notch assay DR) was 55.6, the IC50 (Notch signalling; [1]) was 12000 nM and the IC50 (Notch signalling; [2]) was 12600 nM. For the same molecule, the “AUC Notch” value (Notch signalling; replicates averaged) was 316.0, the Hill-slope (γ-secretase complex; 14p APP assay DR) was -3.83e-12 and the curve fit information (γ-secretase complex; 14p APP assay DR) was “IC50 indeterminate”. The “AUC APP” value (γ-secretase complex) was 487.2.
With `COc1cc(-c2cn3ccnc3c(Nc3ccccc3)n2)cc(OC)c1OC` [CBK066200] the “Bottom (Emax)” value (Notch signalling; 14p Notch assay DR) was 65.6, the IC50 (Notch signalling; [1]) was 36000 nM and the IC50 (Notch signalling; [2]) was 39800 nM. For the same molecule, the “AUC Notch” value (Notch signalling; replicates averaged) was 329.0, the Hill-slope (γ-secretase complex; 14p APP assay DR) was -8.75e-10 and the curve fit information (γ-secretase complex; 14p APP assay DR) was “IC50 indeterminate”. For the same molecule, the “AUC APP” value (γ-secretase complex) was 496.5.
